According to article PMC11992225, “Antibacterial compounds against non-growing and intracellular bacteria” (npj Antimicrobials and Resistance, 2025):
≈ marks a conversion by molar mass, not a printed value. Where “and” joins values, the source holds several entries; their conditions need not be identical. Equal values may be shown once. Read-outs that look alike come from different tables or passages of the source.

Key:
P. aeruginosa DSM1117 = assay: MIC, standard microdilution assay, growing P. aeruginosa; type: cell-based, Pseudomonas aeruginosa; settings: P. aeruginosa; for MIC: Pseudomonas aeruginosa, DSM1117
How it was run: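 MICs come from microdilution in CA-MHB/40 mM HEPES pH 7.4 for the UPEC, Pseudomonas and Staphylococcus strains, and in TSB for Shigella. UPEC also tested in LPM/30 mM MES pH 5.5.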

non-growing UPEC CFT073 [1] = assay: Dilution-regrowth assay (screen, hit validation, dose-response) on stationary-phase UPEC; type: cell-based, Escherichia coli; settings: Escherichia coli; E. coli, pH 7.4; regrowth delay of non-growing bacteria, 1:4 CA-MHB, 24 h treatment, OD600 6 h after 2500-fold dilution; read-out: EC50
How it was run: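 Regrowth (OD600 after 6 h, 37 °C) of diluted non-growing CFT073, following 24 h compound treatment of 24 h stationary cultures, defines activity relative to untreated control. Screen at 20 µM, validation at 20, 10, 5 µM (duplicates), dose–response in three biological replicates fitted by five-parameter logistic.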

non-growing UPEC CFT073 [2] = assay: Dose-dependent killing analysis (CFU spot-plating) of stationary-phase UPEC; type: cell-based, Escherichia coli; settings: for killing, average Δlog10(CFU/ml) / log10(CFU/ml) of treated nongrowing bacteria (single replicates): E. coli in 1:4 CA-MHB (pH 7.4); for log10(CFU/ml) of treated nongrowing bacteria (single replicates): before treatment 8.977
How it was run: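 Non-growing (stationary-phase) UPEC CFT073 treated with compounds in 96-well format at 200 μl, then 10-fold serially diluted in PBS and 10 μl spots plated on LB agar. Plates incubated overnight at 37 °C; colonies counted at lowest resolvable dilution to give CFU. Three biological replicates.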

[3] = tested on: non-growing P. aeruginosa DSM1117; assay: Dose-dependent killing analysis (CFU spot-plating) of stationary-phase P. aeruginosa; type: cell-based, Pseudomonas aeruginosa; settings: for killing, average Δlog10(CFU/ml) / log10(CFU/ml) of treated nongrowing bacteria (single replicates): P. aeruginosa; for log10(CFU/ml) of treated nongrowing bacteria (single replicates): before treatment 8.887
Method: The cultures were grown and treated for 24 h in 1:4 CA-MHB (pH 7.4).
For survival analysis, bacteria were cultivated as described for the dose–response dilution-regrowth assay. Assays with UPEC were conducted at the CBCS screening facility using 96-well plates with a 200 μl sample volume, and compounds were dispensed using the Echo® (Labcyte) system. P. aeruginosa and S. aureus samples were treated according to the protocol used for the dilution-regrowth experiments. Treated samples were serially diluted 10-fold in PBS, and 10 μl drops were spot-plated onto rectangular LB agar plates using either a Beckman NXP robot (for UPEC) or an Integra VIAFLO96 electronic pipette (for P. aeruginosa and S. aureus). The LB agar plates were incubated overnight at 37 °C and scanned. Colonies were counted at the spots of the lowest dilution where individual colonies could be accurately distinguished. Each colony was manually marked on a separate image layer using the GNU Image Manipulation Program, and counted using NIST’s Integrated Colony Enumerator (NICE 1.4) software. The experiments were performed in three biological replicates.

[4] = 1:4 diluted CA-MHB pH 7.4, read-out: MIC (μM) 1:4 CA-MHB
[5] = CA-MHB pH 7.4, read-out: MIC (μM) CA-MHB

**Q.** How did the “MIC (μM) CA-MHB +PAβN” value (P. aeruginosa DSM1117; CA-MHB with 10 μg/ml PaβN) turn out when CC[C@H]1OC(=O)[C@@](C)(F)C(=O)[C@H](C)[C@@H](O[C@@H]2O[C@H](C)C[C@H](N(C)C)[C@H]2O)[C@](C)(OC)C[C@@H](C)C(=O)[C@H](C)[C@H]2N(CCCCn3cc(-c4cccc(N)c4)nn3)C(=O)O[C@]12C [Solithromycin] was run?
**A.** Its value is over 80 µM.

**Q.** And the MIC (P. aeruginosa DSM1117; [4])?
**A.** Its MIC is 80 µM (≈ 67.6 µg/mL).

**Q.** And the MIC (P. aeruginosa DSM1117; [5])?
**A.** Its MIC is 80 µM (≈ 67.6 µg/mL).

**Q.** And the EC50 (non-growing UPEC CFT073 [1])?
**A.** Its EC50 is 0.288 µM.

**Q.** And the “bactericidal activity against non-growing UPEC (CFU counting)” value (non-growing UPEC CFT073 [2]; 24 h treatment of stationary phase culture)?
**A.** The value was “did not kill”.

**Q.** And the “reduction of bacterial counts, stationary phase P. aeruginosa” value ([3]; at 0.5 µM, 24 h treatment)?
**A.** Its value is “more than four”.

**Q.** What about the “reduction of bacterial counts, non-growing P. aeruginosa” value ([3]; at 2.5 µM, 1:4 CA-MHB pH 7.4, 24 h treatment) of the same molecule?
**A.** Its value is “more than four”.

**Q.** What about the “killing of non-growing P. aeruginosa” value ([3]; at 2.5 µM, 24 h treatment) of the same molecule?
**A.** The value was over 4 log10.

**Q.** And the “reduction of bacterial counts, non-growing P. aeruginosa” value ([3]; at 10 µM, 24 h treatment)?
**A.** Its value is “more than four”.

**Q.** How did the MIC (P. aeruginosa DSM1117; [4]) turn out when C[C@@H]1CN(c2c(F)c(N)c3c(=O)c(C(=O)O)cn(C4CC4)c3c2F)C[C@H](C)N1 [Sparfloxacin] was run?
**A.** The MIC was 2 µM (≈ 0.785 µg/mL).

**Q.** And the MIC (P. aeruginosa DSM1117; [5])?
**A.** The MIC was 2 µM (≈ 0.785 µg/mL).

**Q.** What about the EC50 (non-growing UPEC CFT073 [1]) of the same molecule?
**A.** The EC50 was 6.33 µM.

**Q.** What about the “killing, average Δlog10(CFU/ml)” value (non-growing UPEC CFT073 [2]; drug concentration 0.25) of the same molecule?
**A.** Its value is 0.241 log10(CFU/ml).

**Q.** And the “log10(CFU/ml) of treated nongrowing bacteria (single replicates)” value (“log10(CFU/ml) … (single replicates)” below) (non-growing UPEC CFT073 [2]; drug concentration 0.25)?
**A.** Its value is 8.954 log10(CFU/ml) and 8.778 log10(CFU/ml) and 8.477 log10(CFU/ml).

**Q.** And the “killing, average Δlog10(CFU/ml)” value (non-growing UPEC CFT073 [2]; drug concentration 0.5)?
**A.** The value was 0.055 log10(CFU/ml).

**Q.** What about the “log10(CFU/ml) … (single replicates)” value (non-growing UPEC CFT073 [2]; drug concentration 0.5) of the same molecule?
**A.** The value was 9.114 log10(CFU/ml) and 8.699 log10(CFU/ml) and 8.954 log10(CFU/ml).

**Q.** And the “killing, average Δlog10(CFU/ml)” value (non-growing UPEC CFT073 [2]; drug concentration 1)?
**A.** Its value is 0.246 log10(CFU/ml).

**Q.** What about the “log10(CFU/ml) … (single replicates)” value (non-growing UPEC CFT073 [2]; drug concentration 1) of the same molecule?
**A.** The value was 9.114 log10(CFU/ml) and 8.301 log10(CFU/ml) and 8.778 log10(CFU/ml).

**Q.** And the “killing, average Δlog10(CFU/ml)” value (non-growing UPEC CFT073 [2]; drug concentration 2.5)?
**A.** The value was 0.077 log10(CFU/ml).

**Q.** What about the “log10(CFU/ml) … (single replicates)” value (non-growing UPEC CFT073 [2]; drug concentration 2.5) of the same molecule?
**A.** The value was 9.380 log10(CFU/ml) and 8.477 log10(CFU/ml) and 8.845 log10(CFU/ml).

**Q.** What about the “killing, average Δlog10(CFU/ml)” value (non-growing UPEC CFT073 [2]; drug concentration 5) of the same molecule?
**A.** Its value is 0.562 log10(CFU/ml).

**Q.** What about the “log10(CFU/ml) … (single replicates)” value (non-growing UPEC CFT073 [2]; drug concentration 5) of the same molecule?
**A.** Its value is 8.602 log10(CFU/ml) and 8.342 log10(CFU/ml) and 8.301 log10(CFU/ml).

**Q.** What about the “killing, average Δlog10(CFU/ml)” value (non-growing UPEC CFT073 [2]; drug concentration 10) of the same molecule?
**A.** Its value is 1.084 log10(CFU/ml).

**Q.** And the “log10(CFU/ml) … (single replicates)” value (non-growing UPEC CFT073 [2]; drug concentration 10)?
**A.** The value was 8.301 log10(CFU/ml) and 7.602 log10(CFU/ml) and 7.778 log10(CFU/ml).

**Q.** And the “killing, average Δlog10(CFU/ml)” value ([3]; drug concentration 0.1)?
**A.** Its value is 0.268 log10(CFU/ml).

**Q.** What about the “log10(CFU/ml) … (single replicates)” value ([3]; drug concentration 0.1) of the same molecule?
**A.** Its value is 8.602 log10(CFU/ml) and 9.079 log10(CFU/ml) and 8.176 log10(CFU/ml).

**Q.** What about the “killing, average Δlog10(CFU/ml)” value ([3]; drug concentration 0.5) of the same molecule?
**A.** The value was 0.923 log10(CFU/ml).

**Q.** What about the “log10(CFU/ml) … (single replicates)” value ([3]; drug concentration 0.5) of the same molecule?
**A.** Its value is 8.114 log10(CFU/ml) and 8.000 log10(CFU/ml) and 7.778 log10(CFU/ml).

**Q.** What about the “killing, average Δlog10(CFU/ml)” value ([3]; drug concentration 2.5) of the same molecule?
**A.** The value was 3.104 log10(CFU/ml).

**Q.** And the “log10(CFU/ml) … (single replicates)” value ([3]; drug concentration 2.5)?
**A.** Its value is 5.903 log10(CFU/ml) and 6.845 log10(CFU/ml) and 4.602 log10(CFU/ml).

**Q.** And the “killing, average Δlog10(CFU/ml)” value ([3]; drug concentration 10)?
**A.** Its value is 4.887 log10(CFU/ml).

**Q.** What about the “log10(CFU/ml) … (single replicates)” value ([3]; drug concentration 10) of the same molecule?
**A.** The value was “=<4 log10(CFU/ml)”.
